# Assays:
# METAP2 = system: METAP2; set-up: method as in PMID 16525646, PMID 9177176, PMID 10574784; conditions: inactivates aminopeptidase activity; cited from earlier work
# [1] = Plasma pharmacokinetics by LC/MS-MS after subcutaneous dosing; type: in vivo, human
# Description: Blood samples were collected to enable PK bioanalyses at the following timepoints: cycles 1, 3, and 6: predose, 3, 6, 24, 48, and 96 hours after dosing, and days 8 (predose on the Q7D schedule), 15 (predose) and 22 (predose on the Q7D schedule); cycles 2, 4, 5, 7, and beyond: days 1 (predose), 8 (predose on the Q7D schedule), 15 (predose), and 22 (predose on the Q7D schedule). PK samples were collected on day 1 (predose, 3, 6, and 24 hours) for cycle 1 and then predose days 1 and 15 for even cycles and predose for odd cycles thereafter. Analysis of exploratory biomarkers was conducted using commercially available ELISA kits.
# The levels of the released small-molecule METAP2 inhibitor SDX-7539 in plasma were measured using a validated LC/MS-MS method with a lower limit of quantification (LLOQ) of 10.0 pg/mL. The levels of the polymer–drug conjugate evexomostat in plasma were measured using a fit-for-purpose LC/MS-MS method. Target engagement was assessed at various times postdose in lysed whole blood using a validated ELISA designed to measure uninhibited METAP2 ([25]).
# Analyses were conducted using SAS v 9.4 (SAS Institute) unless otherwise noted. AEs were coded in MedDRA v18.1 and analyzed by system organ class/preferred term. Treatment-related AEs (TRAE) were tabulated for all events occurring in two patients or more. Response was assessed using RECIST v1.1. PK analysis utilized WinNonlin v8.1 and a noncompartmental analysis approach.
# patients = system: patients; set-up: method as in PMID 10473076, PMID 12431966; conditions: prior clinical trials; cited from earlier work
# VEGF-D = system: VEGF-D; set-up: method as in PMID 17605814, PMID 24220935; conditions: cited from earlier work
# [2] = released active moiety after subcutaneous evexomostat
compound,measurement,setting,value
CO[C@@H]1[C@H](OC(=O)/C=C/C=C/C=C/C=C/C(=O)O)CC[C@]2(CO2)[C@H]1[C@@]1(C)O[C@@H]1CC=C(C)C [Fumagillin],binding to METAP2,METAP2,potently and irreversibly binds to METAP2
CO[C@@H]1[C@H](OC(=O)NC2CCC(N)CC2)CC[C@]2(CO2)[C@H]1[C@@]1(C)O[C@@H]1CC=C(C)C (some centres unmarked) [SDX-7539],relationship of plasma Cmax and AUC in cycle 1 with reductions in platelets,[1]; % change from baseline to C1D8 or C1D15,potential relationship
same,time with detectable plasma levels,[1]; following a single dose of evexomostat,7 days
same,"plasma exposure (Cmax, AUC0-t) vs dose",[1]; released SDX-7539 vs administered dose of SDX-7320,variability with increasing dose
same,Tmax in plasma,[1]; [2],29 h
same,"Tmax in plasma, range",[1]; [2],6 to 96 h
CO[C@@H]1[C@H](OC(=O)NC(=O)CCl)CC[C@]2(CO2)[C@H]1[C@@]1(C)O[C@@H]1CC=C(C)C [TNP-470],dose-limiting CNS toxicities,patients,dose-limiting CNS toxicities were observed
CCN(CC)CCNC(=O)c1c(C)[nH]c(/C=C2\C(=O)Nc3ccc(F)cc32)c1C [sunitinib],change in circulating VEGF-D,VEGF-D,increase circulating VEGF-D
